The values below are quoted from earlier work in PMC2831206 (Journal of medicinal chemistry, 2010).

One data set relates to PDE9A. As to conditions: read-out: IC50 with PDE9A.
In the next data set the test system is learning and memory. As to conditions: rodents.

Bounds are passed on as bounds.

Take `CC(C)Cn1c(=O)n(C)c(=O)c2nc[nH]c21` [IBMX, 3-isobutyl-1-methylxanthine]: the 50% inhibitory concentration (IC50) (usually the concentration that inhibits the measured activity by half) in the data set on PDE9A is over 200 µM.
For `C[C@H](Cc1nc2c(cnn2-c2ccccc2Cl)c(=O)[nH]1)C(F)(F)F` [compound 1, 1-(2-chlorophenyl)-6-(3,3,3-trifluoro-2-methylpropyl)-1H-pyrazolo[3,4-d]pyrimidine-4(5H)-one], the “effect on learning and memory” value with learning and memory was “ability to improve learning and memory in rodents”.
